Data published in patent US8017584B2, “GD3-mimetic peptides” (Otsuka Pharmaceutical Co., Ltd., priority 2000, dated 2011).
Where “and” joins values, the source holds several entries; their conditions need not be identical. Equal values may be shown once.

Columns and labels:
GD3 antibody 4F6 [1] = experiment: ELISA of immobilized MAP-form GD3-mimetic peptides with anti-GD3 antibody (Example 3(3)); assay type: binding, mouse; conditions: for ELISA absorbance, Anti-GD3 antibody: MAP form 100 ng/well
Method: (§1) A 0.1M NaHCO3 solution containing each of the phage clones obtained in Example 1 (10^11, 10^10, or 10^9 titer/100 μL) was added to the wells of a 96-well microtiter plate (product of Nunc), for immobilization of the phage clones at room temperature for one hour. The supernatant was removed, then the wells were subjected to blocking by use of a blocking solution ([…]; TBS containing 1% BSA, 0.1% skim milk, and 0.02% Tween 20; pH 7.5) at 37° C. for four hours.
(§2) The supernatant was removed, then GD3 antibody 4F6 (100 μL), serving as a primary antibody, was added to each well for reaction under shaking at room temperature for two hours. After completion of reaction, the supernatant was removed, then the wells were washed six times with a washing solution (400 μL for each well, TBS containing 0.05% Tween 20). Subsequently, a secondary antibody (anti-mouse IgG-HRP, product of Santa Cruz Biotechnology, catalogue No. SC-2031, Lot. No. C089) which was diluted 5,000-fold by use of a blocking solution prepared in advance was added to the wells (100 μL to each well) for reaction under shaking at room temperature for one hour. After completion of reaction, the wells were washed four times with a washing solution (400 μL for each well), then a detection reagent (TMB Microwell; product of KPL, Catalogue No. 50-76-04, Lot. No. WF075) was added to the wells (100 μL to each well), and the mixture was allowed to stand for five minutes at room temperature.
(§3) 1N-Hydrochloric acid (100 μL) was added to each well for stopping the reaction. Absorbance of each well was measured at 450 nm and 620 nm, and “OD450-OD620” was calculated. A Multiscan (product of Labosystems) was used in measurement of absorbance. A well in which phages had not been immobilized served as a blank, and the absorbance of each well was determined by subtracting the blank value from the “as-measured” value.
(§4) A 0.1M NaHCO3 solution containing a GD3-mimetic peptide of the invention in the above MAP form (100 ng/100 μL) was added to the wells of a 96-well micro-titer plate, for immobilization at room temperature for one hour. Subsequently, in a manner similar to the ELISA method employed in Example 2, binding affinity of the GD3-mimetic peptide to GD3 antibody 4F6 was investigated.
(§5) Anti-GD2 antibody and anti-OAcGD3 antibody (Cerato, E., et al., Hybridoma, 16(4), 307-316 (1997)) were used as controls (these antibodies were kindly provided by from Dr. Portoukalian).

Anti-GD2 antibody = experiment: ELISA of immobilized MAP-form peptides with control anti-GD2 antibody; assay type: binding; conditions: MAP form 100 ng/well
Method: as §4, §5

GD3 antibody 4F6 [2] = experiment: ELISA of immobilized phage clones with GD3 antibody 4F6 (Example 2); assay type: binding, mouse; conditions: for absorbance OD450-OD620, binding to GD3 antibody 4F6: phage clone immobilized, duplicate lines
Method: as §1, §2, §3

[3] = tested on: T-cell-rich lymphocytes / IL-2-dependent CTLL2 cells; experiment: Cell response test: IL-2 activity (3H thymidine up-take of CTLL2 cells) in supernatant of spleen cells of mice immunized with R4 peptide (R4-KLH); assay type: cell-based, mouse; conditions: for 3H Thymidine up-take into CTLL2 cells, mean ± SE (4 wells): mice immunized with R4 peptide
Method: Using a fusion peptide R4-KLH obtained in Example 3 (4) between GD3R4 and KLH or a MAP form fusion peptide R4MAP-KLH created between GD3R4 and KLH, immunization was performed as described in (1) above.
Briefly, an emulsion mixed with an adjuvant (1:1, by volume) was administered to each member of groups of mice, each group consisting of 3 mice (CD-1), in an amount of 100 μL/mouse (for one administration (ip), peptide 30 μg/mouse) for immunization. In the case of R4-KLH, administration was performed every one week for one month, and subsequently every two weeks for one month; and in the case of R4MAP-KLH, every one week for 2 months. In any case, 4 days after the final immunization, blood was collected to thereby prepare antiserum samples.
(§6) The spleen aseptically removed from each of the above-immunized mice was minced in a 10% FCS-supplemented RPMI 1640 medium. By use of a nylon wool column, T-cell-rich lymphocytes were prepared and the cells were counted. The above medium containing the cells in an amount of 10^5 cells per 150 μL was added to each of the wells of a culture plate. PHA was added so as to attain a final concentration of 1 μg/mL. A peptide of the present invention or any of different gangliosides in PBS was added, and the mixture was incubated for 96 hours. A supernatant (100 μL) was obtained from each well. The IL-2 activity of the supernatant was determined through use of IL-2-dependent mouse cells, CTLL2. Briefly, the supernatant (100 μL) diluted 2 to 50-fold with a medium was added to the wells in an amount of 10^4 CTLL2 cells/well, followed by incubation at 37° C. for 48 hours. Subsequently, 3H-thymidine (0.5 μCi) was added to each well, followed by incubation for 6 hours. CTLL2 cells were recovered on a paper filter and counted for 3H.

[4] = tested on: T-cell-rich lymphocytes / IL-2-dependent CTLL2 cells; experiment: Cell response test: IL-2 activity (3H thymidine up-take of CTLL2 cells) in supernatant of spleen cells of mice immunized with GD3; assay type: cell-based, mouse; conditions: for 3H Thymidine up-take into CTLL2 cells, mean ± SE (4 wells): mice immunized with GD3
Method: Similar to the case of immunization with R4-KLH, antiserum samples were also prepared through immunization with GD3 (30 μg).
as §6

[5] = stimulant 1 μg/ml, supernatant dilution 1/20
[6] = stimulant 1 μg/ml, supernatant dilution 1/50
[7] = stimulant 1 μg/ml, supernatant dilution ½
[8] = stimulant 1 μg/ml, supernatant dilution ⅕
[9] = stimulant 2 μg/ml, supernatant dilution 1/20
[10] = stimulant 2 μg/ml, supernatant dilution 1/50
[11] = stimulant 2 μg/ml, supernatant dilution ½
[12] = stimulant 2 μg/ml, supernatant dilution ⅕
[13] = stimulant 5 μg/ml, supernatant dilution 1/20
[14] = stimulant 5 μg/ml, supernatant dilution 1/50
[15] = stimulant 5 μg/ml, supernatant dilution ½
[16] = stimulant 5 μg/ml, supernatant dilution ⅕

| Sequence | ELISA absorbance, Anti-GD3 antibody (GD3 antibody 4F6 [1]; Serum % 12.50%) | ELISA absorbance, Anti-GD3 antibody (GD3 antibody 4F6 [1]; Serum % 25%) | ELISA absorbance, Anti-GD3 antibody (GD3 antibody 4F6 [1]; Serum % 50%) | ELISA absorbance, Anti-GD3 antibody (GD3 antibody 4F6 [1]; Serum % 100%) | ELISA absorbance, Anti-GD2 antibody (Anti-GD2 antibody; Serum % 12.50%) | ELISA absorbance, Anti-GD2 antibody (Anti-GD2 antibody; Serum % 25%) | ELISA absorbance, Anti-GD2 antibody (Anti-GD2 antibody; Serum % 50%) | ELISA absorbance, Anti-GD2 antibody (Anti-GD2 antibody; Serum % 100%) | absorbance OD450-OD620, binding to GD3 antibody 4F6 (GD3 antibody 4F6 [2]; 10^9 titer/well) | absorbance OD450-OD620, binding to GD3 antibody 4F6 (GD3 antibody 4F6 [2]; 10^10 titer/well) | absorbance OD450-OD620, binding to GD3 antibody 4F6 (GD3 antibody 4F6 [2]; 10^11 titer/well) | 3H Thymidine up-take into CTLL2 cells, mean ± SE (4 wells) [3, 5] | 3H Thymidine up-take into CTLL2 cells, mean ± SE (4 wells) [3, 6] | 3H Thymidine up-take into CTLL2 cells, mean ± SE (4 wells) [3, 7] | 3H Thymidine up-take into CTLL2 cells, mean ± SE (4 wells) [3, 8] | 3H Thymidine up-take into CTLL2 cells, mean ± SE (4 wells) [3, 9] | 3H Thymidine up-take into CTLL2 cells, mean ± SE (4 wells) [3, 10] | 3H Thymidine up-take into CTLL2 cells, mean ± SE (4 wells) [3, 11] | 3H Thymidine up-take into CTLL2 cells, mean ± SE (4 wells) [3, 12] | 3H Thymidine up-take into CTLL2 cells, mean ± SE (4 wells) [3, 13] | also measured |
| --- | --- | --- | --- | --- | --- | --- | --- | --- | --- | --- | --- | --- | --- | --- | --- | --- | --- | --- | --- | --- | --- |
| RHAYRSMAEWGFLYS (RHAYRSMAQWGFLYS) [GD3R4, tested as phage clone, MAP form or peptide] | 0.144 | 0.229 | 0.309 | 0.381 | 0.061 | 0.072 | 0.103 | 0.149 | 0.109 and 0.116 | 0.14 and 0.102 | 0.386 and 0.315 | 2420 ± 561 | 1017 ± 182 | 6781 ± 1549 | 4413 ± 854 | 7934 ± 1031 | 2742 ± 751 | 15383 ± 2194 | 10375 ± 1708 | 8354 ± 957 | binding to the anti-GD3 antibody (GD3 antibody 4F6 [1]): stronger bonding to the anti-GD3 antibody; binding affinity to GD3 antibody 4F6 (words, FIG. 1) (GD3 antibody 4F6 [2]; phage clones): strongest binding affinity; activation of T cells ([3]; R4-KLH-immunized mice): T cells have been confirmed to have activated; 3H Thymidine up-take into CTLL2 cells, mean ± SE (4 wells) [3, 14]: 3058 ± 568; 3H Thymidine up-take into CTLL2 cells, mean ± SE (4 wells) [3, 15]: 18692 ± 2310; 3H Thymidine up-take into CTLL2 cells, mean ± SE (4 wells) [3, 16]: 12657 ± 1624; IL-2 production by T-cell-rich lymphocytes ([4]; lymphocytes from GD3-immunized mouse): production of IL-2 has been confirmed; 3H Thymidine up-take into CTLL2 cells, mean ± SE (4 wells) [4, 5]: 1994 ± 348; 3H Thymidine up-take into CTLL2 cells, mean ± SE (4 wells) [4, 6]: 881 ± 127; 3H Thymidine up-take into CTLL2 cells, mean ± SE (4 wells) [4, 7]: 5867 ± 1213; 3H Thymidine up-take into CTLL2 cells, mean ± SE (4 wells) [4, 8]: 3418 ± 749; 3H Thymidine up-take into CTLL2 cells, mean ± SE (4 wells) [4, 9]: 3248 ± 613; 3H Thymidine up-take into CTLL2 cells, mean ± SE (4 wells) [4, 10]: 1274 ± 156; 3H Thymidine up-take into CTLL2 cells, mean ± SE (4 wells) [4, 11]: 12671 ± 1643; 3H Thymidine up-take into CTLL2 cells, mean ± SE (4 wells) [4, 12]: 8349 ± 1014; 3H Thymidine up-take into CTLL2 cells, mean ± SE (4 wells) [4, 13]: 7526 ± 839; 3H Thymidine up-take into CTLL2 cells, mean ± SE (4 wells) [4, 14]: 2684 ± 387; 3H Thymidine up-take into CTLL2 cells, mean ± SE (4 wells) [4, 15]: 14237 ± 1884; 3H Thymidine up-take into CTLL2 cells, mean ± SE (4 wells) [4, 16]: 11358 ± 1563 |
| LAPPRPRSELVFLSV (LAPPRPRSQLVFLSV) [GD3R1, tested as phage clone, MAP form or peptide] | 0.083 | 0.127 | 0.137 | 0.263 | 0.065 | 0.067 | 0.095 | 0.123 | 0.017 and 0.026 | 0.067 and 0.055 | 0.094 and 0.086 | 949 ± 136 | 225 ± 38 | 3218 ± 716 | 1876 ± 281 | 845 ± 147 | 220 ± 40 | 3417 ± 542 | 1864 ± 327 | 901 ± 152 | 3H Thymidine up-take into CTLL2 cells, mean ± SE (4 wells) [3, 14]: 236 ± 45; 3H Thymidine up-take into CTLL2 cells, mean ± SE (4 wells) [3, 15]: 3469 ± 612; 3H Thymidine up-take into CTLL2 cells, mean ± SE (4 wells) [3, 16]: 1781 ± 285; 3H Thymidine up-take into CTLL2 cells, mean ± SE (4 wells) [4, 5]: 888 ± 107; 3H Thymidine up-take into CTLL2 cells, mean ± SE (4 wells) [4, 6]: 234 ± 43; 3H Thymidine up-take into CTLL2 cells, mean ± SE (4 wells) [4, 7]: 3014 ± 671; 3H Thymidine up-take into CTLL2 cells, mean ± SE (4 wells) [4, 8]: 1967 ± 276; 3H Thymidine up-take into CTLL2 cells, mean ± SE (4 wells) [4, 9]: 906 ± 121; 3H Thymidine up-take into CTLL2 cells, mean ± SE (4 wells) [4, 10]: 246 ± 38; 3H Thymidine up-take into CTLL2 cells, mean ± SE (4 wells) [4, 11]: 3219 ± 546; 3H Thymidine up-take into CTLL2 cells, mean ± SE (4 wells) [4, 12]: 1831 ± 259; 3H Thymidine up-take into CTLL2 cells, mean ± SE (4 wells) [4, 13]: 942 ± 116; 3H Thymidine up-take into CTLL2 cells, mean ± SE (4 wells) [4, 14]: 251 ± 44; 3H Thymidine up-take into CTLL2 cells, mean ± SE (4 wells) [4, 15]: 3344 ± 497; 3H Thymidine up-take into CTLL2 cells, mean ± SE (4 wells) [4, 16]: 1956 ± 285 |
